A word on the pIC50: it is the IC50 on a negative log10 scale, so that one unit is a factor of ten.

pIC50: −log10 of the molar value. Bounds are passed on as bounds.

Among the data in patent US11542259B2, “Compounds for the treatment of kinase-dependent disorders” (Exelixis, Inc., priority 2018, dated 2023) are IC50 values, retold here.

The target of assay [1] is Human Mer (residues R557-E882 with H628Q and R794A) (Homo sapiens (Human), UniProt Q12866). Put plainly: Human Mer kinase assay (33P radiometric, KinaseProfiler). The settings on record: 10 μM ATP. It counts as biochemical.
Sequence of Human Mer (residues R557-E882 with H628Q and R794A) (Q12866 557-882, stated change not applied): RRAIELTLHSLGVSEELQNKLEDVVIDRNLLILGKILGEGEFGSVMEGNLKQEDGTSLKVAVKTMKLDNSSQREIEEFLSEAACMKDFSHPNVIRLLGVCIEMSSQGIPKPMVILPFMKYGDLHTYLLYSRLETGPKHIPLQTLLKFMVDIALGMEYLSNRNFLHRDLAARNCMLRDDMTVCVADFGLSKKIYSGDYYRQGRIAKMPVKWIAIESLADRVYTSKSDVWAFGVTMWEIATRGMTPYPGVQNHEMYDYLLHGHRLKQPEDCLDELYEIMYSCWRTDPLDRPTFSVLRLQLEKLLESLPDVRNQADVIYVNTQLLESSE
For assay [2], the target named is Human Met (residues R974-S1390 with A1209G and V1290L) (Homo sapiens, UniProt P08581). Put plainly: Human Met kinase assay (33P radiometric, KinaseProfiler). It counts as biochemical. Conditions: 10 μM ATP, read-out: c-Met IC50.
The next assay deals with Met (Homo sapiens (Human), UniProt P08581). Put plainly: Met autophosphorylation ELISA in PC-3 cells. It counts as cell-based. Conditions: cellular, HGF stimulated, read-out: c-Met IC50. The method, boiled down:
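Phospho-Met (panTyr) sandwich ELISA on lysates of PC-3 cells given 100 ng/mL HGF for 10 min after 1 h compound exposure (8-point curve, 0.3% DMSO) following 3 h serum starvation. Normalised to HGF-stimulated DMSO and reference-inhibitor wells; 4-parameter logistic IC50.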

For a further assay, the target named is KDR (Homo sapiens (Human), UniProt P35968). Put plainly: KDR autophosphorylation ELISA in HUVEC cells. Format: cell-based. The settings on record: cellular, VEGF165 stimulated. Summed up:
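Read-out: phospho-KDR ELISA on cell lysates, quantified against a phospho-KDR standard, normalised to VEGF-stimulated DMSO (100%) and unstimulated (0%) wells, IC50 by 4-parameter fit. Cells were 24 h serum-starved HUVEC given compound for 1 h, then 100 ng/mL VEGF165 for 5 min.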
In general terms: ELISA stands for enzyme-linked immunosorbent assay.

Sequence of KDR (P35968 20-1356): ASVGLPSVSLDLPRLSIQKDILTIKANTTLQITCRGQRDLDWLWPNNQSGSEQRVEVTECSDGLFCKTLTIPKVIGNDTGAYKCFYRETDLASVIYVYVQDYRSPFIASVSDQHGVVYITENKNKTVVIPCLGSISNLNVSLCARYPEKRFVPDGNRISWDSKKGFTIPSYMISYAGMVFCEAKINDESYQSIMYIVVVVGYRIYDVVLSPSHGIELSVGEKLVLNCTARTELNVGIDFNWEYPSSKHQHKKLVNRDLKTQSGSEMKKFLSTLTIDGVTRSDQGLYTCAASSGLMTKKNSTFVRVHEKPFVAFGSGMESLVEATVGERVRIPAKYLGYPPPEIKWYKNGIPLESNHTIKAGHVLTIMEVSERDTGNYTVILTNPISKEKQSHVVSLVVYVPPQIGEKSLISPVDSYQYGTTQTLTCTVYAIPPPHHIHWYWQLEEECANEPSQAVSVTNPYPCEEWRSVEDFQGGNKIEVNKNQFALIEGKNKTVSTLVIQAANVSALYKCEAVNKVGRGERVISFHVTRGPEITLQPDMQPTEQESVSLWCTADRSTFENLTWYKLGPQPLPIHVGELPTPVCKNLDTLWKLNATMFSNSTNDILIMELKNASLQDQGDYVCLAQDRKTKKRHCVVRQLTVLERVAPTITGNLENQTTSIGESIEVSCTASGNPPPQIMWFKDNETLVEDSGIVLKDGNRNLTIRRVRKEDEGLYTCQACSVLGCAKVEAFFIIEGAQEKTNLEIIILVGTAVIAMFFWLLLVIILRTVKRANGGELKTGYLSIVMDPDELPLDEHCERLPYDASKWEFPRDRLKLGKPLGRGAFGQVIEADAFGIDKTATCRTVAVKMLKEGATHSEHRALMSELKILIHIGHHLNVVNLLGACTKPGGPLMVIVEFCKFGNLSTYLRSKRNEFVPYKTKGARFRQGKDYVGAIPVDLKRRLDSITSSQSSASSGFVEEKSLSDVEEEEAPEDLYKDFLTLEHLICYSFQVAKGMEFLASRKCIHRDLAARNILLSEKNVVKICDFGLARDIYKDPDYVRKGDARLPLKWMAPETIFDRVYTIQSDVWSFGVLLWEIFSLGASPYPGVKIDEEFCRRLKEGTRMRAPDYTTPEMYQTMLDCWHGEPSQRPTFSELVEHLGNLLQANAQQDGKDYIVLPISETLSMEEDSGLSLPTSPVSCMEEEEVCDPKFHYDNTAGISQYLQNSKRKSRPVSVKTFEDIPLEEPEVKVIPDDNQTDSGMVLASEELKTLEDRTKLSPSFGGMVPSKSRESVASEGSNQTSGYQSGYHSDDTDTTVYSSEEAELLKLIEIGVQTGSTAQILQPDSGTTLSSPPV
Sequence of Met (P08581 25-1390): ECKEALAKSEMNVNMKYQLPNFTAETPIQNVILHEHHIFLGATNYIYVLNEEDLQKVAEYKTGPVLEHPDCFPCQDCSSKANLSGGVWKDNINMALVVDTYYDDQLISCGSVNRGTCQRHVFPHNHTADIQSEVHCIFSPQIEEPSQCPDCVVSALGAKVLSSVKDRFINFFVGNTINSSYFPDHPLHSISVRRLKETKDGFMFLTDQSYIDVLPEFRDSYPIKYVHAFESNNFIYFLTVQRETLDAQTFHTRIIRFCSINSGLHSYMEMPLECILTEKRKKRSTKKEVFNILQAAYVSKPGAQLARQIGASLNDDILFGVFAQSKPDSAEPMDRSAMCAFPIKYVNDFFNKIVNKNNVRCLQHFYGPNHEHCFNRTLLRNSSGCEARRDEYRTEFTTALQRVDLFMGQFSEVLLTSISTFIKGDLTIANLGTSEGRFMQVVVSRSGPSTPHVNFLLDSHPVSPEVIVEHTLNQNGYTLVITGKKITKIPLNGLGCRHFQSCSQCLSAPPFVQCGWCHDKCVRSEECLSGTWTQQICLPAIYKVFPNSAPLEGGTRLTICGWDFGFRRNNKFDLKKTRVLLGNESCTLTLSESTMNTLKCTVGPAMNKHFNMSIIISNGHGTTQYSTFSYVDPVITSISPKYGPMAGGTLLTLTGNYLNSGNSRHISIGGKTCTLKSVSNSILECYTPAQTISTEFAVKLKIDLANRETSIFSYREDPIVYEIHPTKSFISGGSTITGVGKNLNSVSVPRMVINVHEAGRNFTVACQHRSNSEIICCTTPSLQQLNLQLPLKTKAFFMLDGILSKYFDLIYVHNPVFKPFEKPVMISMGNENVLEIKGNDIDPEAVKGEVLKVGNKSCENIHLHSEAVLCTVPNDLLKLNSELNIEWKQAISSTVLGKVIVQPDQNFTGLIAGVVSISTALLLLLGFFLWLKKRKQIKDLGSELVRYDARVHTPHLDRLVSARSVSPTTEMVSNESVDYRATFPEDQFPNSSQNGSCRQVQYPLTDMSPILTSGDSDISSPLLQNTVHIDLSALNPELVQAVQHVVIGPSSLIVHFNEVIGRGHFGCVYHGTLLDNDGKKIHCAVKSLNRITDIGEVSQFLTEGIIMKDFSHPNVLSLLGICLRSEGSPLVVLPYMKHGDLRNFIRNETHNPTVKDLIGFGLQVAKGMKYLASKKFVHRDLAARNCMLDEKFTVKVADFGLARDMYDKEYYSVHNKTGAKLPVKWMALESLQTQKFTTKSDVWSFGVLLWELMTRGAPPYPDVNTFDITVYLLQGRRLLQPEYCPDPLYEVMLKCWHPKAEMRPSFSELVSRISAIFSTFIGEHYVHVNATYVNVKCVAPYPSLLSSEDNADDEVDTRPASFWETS

For the molecule `COC(=O)c1cc2c(Oc3ccc(NC(=O)C4(C(=O)Nc5ccc(F)cc5)CC4)cc3)ccnc2cc1OC` [Compound 5, methyl 4-[4-[[1-[(4-fluorophenyl)carbamoyl]-cyclopropanecarbonyl]amino]-phenoxy]-7-methoxyquinoline-6-carboxylate], the pIC50 in assay [1] is at least 8.00; in assay [2] it was at least 8.00; on Met it was 7.00 to 8.00; at KDR, at least 8.00.
Turning to `COC(=O)c1cc2c(Oc3ccc(NC(=O)C4(C(=O)Nc5ccc(F)cc5)CC4)cc3F)ccnc2cc1OC` [Compound 129, methyl 4-[2-fluoro-4-[[1-[(4-fluorophenyl)carbamoyl]cyclopropanecarbonyl]amino]phenoxy]-7-methoxyquinoline-6-carboxylate], the pIC50 in assay [1] was at least 8.00; in assay [2] it was at least 8.00; at Met it was 7.00 to 8.00; against KDR it was at least 8.00.
On to `COc1cc2nccc(Oc3ccc(NC(=O)C4(C(=O)Nc5ccc(F)cc5)CC4)cc3)c2cc1-c1ccn[nH]1` [Compound 185, 1-N′-(4-fluorophenyl)-1-N-[4-[7-methoxy-6-(1H-pyrazol-5-yl)quinolin-4-yl]oxyphenyl]cyclopropane-1,1-dicarboxamide], for which the pIC50 in assay [1] is at least 8.00; in assay [2], at least 8.00; at Met, 7.00 to 8.00; against KDR it was at least 8.00.
Regarding `Cc1cc2c(Oc3ccc(NC(=O)C4(C(=O)Nc5ccc(F)cc5)CC4)cc3)ccnc2cc1C(N)=O` [Compound 142, 1-N-[4-(7-carbamoyl-6-methylquinolin-4-yl)oxyphenyl]-1-N′-(4-fluorophenyl)cyclopropane-1,1-dicarboxamide], the pIC50 in assay [1] is at least 8.00; in assay [2], at least 8.00; at Met it was 7.00 to 8.00; on KDR it was 7.00 to 8.00.
With `COc1cc2nccc(Oc3ccc(NC(=O)C4(C(=O)Nc5ccc(F)cc5)CC4)cc3Cl)c2cc1C(N)=O` [Compound 132, 1-N′-[4-(6-carbamoyl-7-methoxyquinolin-4-yl)oxy-3-chlorophenyl]-1-N-(4-fluorophenyl)cyclopropane-1,1-dicarboxamide], the pIC50 (in assay [1]; in assay [2]; at Met; at KDR) was at least 8.00 each time.
As to `COc1cc2nccc(Oc3ccc(NC(=O)C4(C(=O)Nc5ccc(F)cc5)CC4)cc3)c2cc1C1CC1` [Compound 187, 1-N-[4-(6-cyclopropyl-7-methoxyquinolin-4-yl)oxyphenyl]-1-N′-(4-fluorophenyl)cyclopropane-1,1-dicarboxamide], the pIC50 in assay [1] is at least 8.00; in assay [2], 7.00 to 8.00; on Met it was 7.00 to 8.00; against KDR it was 7.00 to 8.00.
Regarding `COc1cc2nccc(Oc3ccc(NC(=O)C4(C(=O)Nc5ccc(F)cc5)CC4)cc3)c2cc1C1(O)CN(C(=O)OC(C)(C)C)C1` [Compound 195, tert-butyl 3-[4-[4-[[1-[(4-fluorophenyl)carbamoyl]cyclopropanecarbonyl]amino]phenoxy]-7-methoxyquinolin-6-yl]-3-hydroxyazetidine-1-carboxylate], the pIC50 was at least 8.00 in assay [1], 7.00 to 8.00 in assay [2], 7.00 to 8.00 on Met and 7.00 to 8.00 on KDR.
For `COc1cc2nccc(Oc3ccc(NC(=O)C4(C(=O)Nc5ccc(F)cc5)CC4)cc3)c2cc1-c1cnn(C)c1` [Compound 182, 1-N′-(4-fluorophenyl)-1-N-[4-[7-methoxy-6-(1-methylpyrazol-4-yl)quinolin-4-yl]oxyphenyl]cyclopropane-1,1-dicarboxamide], the pIC50 in assay [1] was at least 8.00; in assay [2], at least 8.00; on Met, 7.00 to 8.00; on KDR, at least 8.00.
For the molecule `COc1cc2nccc(Oc3ccc(NC(=O)C4(C(=O)Nc5ccc(F)cc5)CC4)cc3)c2cc1-c1cnoc1` [Compound 183, 1-N′-(4-fluorophenyl)-1-N-[4-[7-methoxy-6-(1,2-oxazol-4-yl)quinolin-4-yl]oxyphenyl]cyclopropane-1,1-dicarboxamide], the pIC50 in assay [1] was at least 8.00; in assay [2], at least 8.00; on Met, 7.00 to 8.00; against KDR, 7.00 to 8.00.
With `COc1cc2nccc(Oc3ccc(NC(=O)C4(C(=O)Nc5ccc(F)cc5)CC4)cc3)c2cc1S(N)(=O)=O` [Compound 206, 1-N′-(4-Fluorophenyl)-1-N-[4-(7-methoxy-6-sulfamoylquinolin-4-yl)oxyphenyl]cyclopropane-1,1-dicarboxamide], the pIC50 (in assay [1]; in assay [2]; on Met; against KDR) was at least 8.00 in each case.
In the case of `CNC(=O)c1cc2c(Oc3ccc(NC(=O)C4(C(=O)Nc5ccc(F)cc5)CC4)cc3Cl)ccnc2cc1OC` [Compound 134, 1-N′-[3-chloro-4-[7-methoxy-6-(methylcarbamoyl)quinolin-4-yl]oxyphenyl]-1-N-(4-fluorophenyl)cyclopropane-1,1-dicarboxamide], the pIC50 (in assay [1]; in assay [2]; on Met; at KDR) was at least 8.00 each time.
Take `COc1cc2nccc(Oc3ccc(NC(=O)C4(C(=O)Nc5ccc(F)cc5)CC4)cc3)c2cc1C(=O)NC1COC1` [Compound 13, 1-N′-(4-fluorophenyl)-1-N-[4-[7-methoxy-6-(oxetan-3-ylcarbamoyl)quinolin-4-yl]oxyphenyl]cyclopropane-1,1-dicarboxamide]: the pIC50 in assay [1] is at least 8.00; in assay [2], at least 8.00; at Met, 7.00 to 8.00; on KDR, at least 8.00.
With `COc1cc2nccc(Oc3ccc(NC(=O)C4(C(=O)Nc5ccc(F)cc5)CC4)cc3)c2cc1C#N` [Compound 37, 1-N-[4-(6-cyano-7-methoxyquinolin-4-yl)oxyphenyl]-1-N′-(4-fluorophenyl)cyclopropane-1,1-dicarboxamide], the pIC50 in assay [1] is at least 8.00; in assay [2], 7.00 to 8.00; at Met it was 7.00 to 8.00; at KDR, 7.00 to 8.00.
Take `COc1cc2nccc(Oc3ccc(NC(=O)C4(C(=O)Nc5ccc(F)cc5)CC4)cc3)c2cc1N1CC(O)C1` [Compound 199, 1-N′-(4-fluorophenyl)-1-N-[4-[6-(3-hydroxyazetidin-1-yl)-7-methoxyquinolin-4-yl]oxyphenyl]cyclopropane-1,1-dicarboxamide]: the pIC50 (in assay [1]; in assay [2]; at Met; on KDR) was at least 8.00 throughout.
Take `COc1cc2nccc(Oc3ccc(NC(=O)C4(C(=O)Nc5ccc(F)cc5)CC4)cc3)c2cc1-c1ccccn1` [Compound 176, 1-N′-(4-fluorophenyl)-1-N-[4-(7-methoxy-6-pyridin-2-ylquinolin-4-yl)oxyphenyl]cyclopropane-1,1-dicarboxamide]: the pIC50 in assay [1] was at least 8.00; in assay [2], 7.00 to 8.00; at Met, 7.00 to 8.00; at KDR, 7.00 to 8.00.
On to `COc1cc2nccc(Oc3ccc(NC(=O)C4(C(=O)Nc5ccc(F)cc5)CC4)cc3)c2cc1-c1cn[nH]c1` [Compound 186, 1-N′-(4-fluorophenyl)-1-N-[4-[7-methoxy-6-(1H-pyrazol-4-yl)quinolin-4-yl]oxyphenyl]cyclopropane-1,1-dicarboxamide], for which the pIC50 in assay [1] is at least 8.00; in assay [2], at least 8.00; on Met it was 7.00 to 8.00; on KDR, at least 8.00.
In the case of `COc1cc2nccc(Oc3ccc(NC(=O)C4(C(=O)Nc5ccc(F)cc5)CC4)cc3)c2cc1-c1ncco1` [Compound 45, 1-N′-(4-fluorophenyl)-1-N-[4-[7-methoxy-6-(1,3-oxazol-2-yl)quinolin-4-yl]oxyphenyl]cyclopropane-1,1-dicarboxamide], the pIC50 (in assay [1]; in assay [2]; at Met; at KDR) was at least 8.00 in each case.
`COc1cc2nccc(Oc3ccc(NC(=O)C4(C(=O)Nc5ccc(F)cc5)CC4)cc3)c2cc1S(C)(=O)=O` [Compound 210, 1-N′-(4-Fluorophenyl)-1-N-[4-(7-methoxy-6-methylsulfonylquinolin-4-yl)oxyphenyl]cyclopropane-1,1-dicarboxamide]: the pIC50 was at least 8.00 in assay [1], at least 8.00 in assay [2], 7.00 to 8.00 at Met and at least 8.00 against KDR.
As for `CNC(=O)c1cc2nccc(Oc3ccc(NC(=O)C4(C(=O)Nc5ccc(F)cc5)CC4)cc3)c2cc1C` [Compound 143, 1-N′-(4-fluorophenyl)-1-N-[4-[6-methyl-7-(methylcarbamoyl)quinolin-4-yl]oxyphenyl]cyclopropane-1,1-dicarboxamide], the pIC50 is at least 8.00 in assay [1], at least 8.00 in assay [2], 7.00 to 8.00 on Met and 6.52 to 7.00 against KDR.
